Measurements reported in patent US20130303619A1, “Antibacterial Compositions” (priority 2009, published 2013).
“Also recorded” adds a separate entry of the source.

Columns and labels:
[1] = system: LL-37 expression by OBA9 cells; assay: LL-37 expression by OBA9 cells with Sepharose-coupled benzoic acid isomers; format: cell-based, human; settings: isomer coupled to NBS-activated Sepharose gel
Description: In order to investigate the structure-function relationship underlying EGCG-mediated induction of LL-37 from human gingival epithelial cell line OBA9, different isomers of benzoic acids are examined for their effects on the LL-37 expression by OBA9 cells. Each isomer of benzoic acids is coupled to NBS-activated Sepharose gel (Pierce) using a cross-linker, 1-Ethyl-3-[3-dimethylaminopropyl]carbodiimide (EDC, Pierce). The isomers of benzoic acids include 1) 2,6-di-hydroxy benzoic acid, 2) 2,3,4-tri-hydroxy benzoic acids, 3) 3,4,5-tri-hydroxy benzoic acids, and 4) 2,4,6-tri-hydroxy benzoic acids.

[2] = molecular target: T1, DEAD box polypeptide 5 (DDX5) (Homo sapiens, UniProt P17844); assay: Pull down assay with benzoic acid-coupled beads and OBA9 cell lysate, Mass-Spec; format: binding; settings: beads incubated with OBA9 cell lysate
T1 construct: endogenous in cells; host or cells: OBA9 human gingival epithelial cell line (lysate)
T1 sequence (P17844 whole entry): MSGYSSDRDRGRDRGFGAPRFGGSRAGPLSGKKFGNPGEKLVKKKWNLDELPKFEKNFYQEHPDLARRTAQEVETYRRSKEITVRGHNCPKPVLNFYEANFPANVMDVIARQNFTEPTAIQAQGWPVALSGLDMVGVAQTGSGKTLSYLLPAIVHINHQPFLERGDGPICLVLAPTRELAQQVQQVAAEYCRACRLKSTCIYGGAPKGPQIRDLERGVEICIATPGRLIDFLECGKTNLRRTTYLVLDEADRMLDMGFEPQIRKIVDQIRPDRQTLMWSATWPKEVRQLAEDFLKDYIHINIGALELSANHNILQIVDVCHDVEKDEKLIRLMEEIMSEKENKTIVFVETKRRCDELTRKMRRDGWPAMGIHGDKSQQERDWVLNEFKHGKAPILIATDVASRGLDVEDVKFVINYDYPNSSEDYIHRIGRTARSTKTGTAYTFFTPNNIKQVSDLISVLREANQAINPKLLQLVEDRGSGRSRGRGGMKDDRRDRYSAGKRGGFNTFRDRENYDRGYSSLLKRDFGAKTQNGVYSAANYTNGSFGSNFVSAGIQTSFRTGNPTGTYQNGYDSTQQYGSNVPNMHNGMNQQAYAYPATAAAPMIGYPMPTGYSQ
Description: FIG. 1 is a schematic showing a pull down assay to determine counter ligand of benzoic acids expressed on OBA9 cells is DDX5. OBA9 cells were harvested and dissolved in lysis buffer. The resulting cell lysis solution was reacted with Sephadex beads conjugated with 2,6-dihydroxy benzoic acid (DHBC) and 2,3,4-trihydroxy benzoic acid (THBC). The cellular components pulled down with beads were separated in SDS-PAGE gel, and stained with Coomassie blue. The 35 kD and 70 kD bands specific to 2,3,4-THBC were subjected to Mass-Spec analysis at Tufts University Core Facility. The procedure for pull down assay includes preparation of cell lysate from gingival epithelial cell (OBA9) culture; preparation of beads conjugated with tri-hydroxy benzoic acid (THBC); incubation of beads with OBA9 cell lysate; remove unbound protein by washing beads; the proteins bound to beads are separated in SDS-PAGE; distinct bands to 2,3,4-THBC are sent for Mass-Spec service; and identification of molecular finger print of 2,3,4-THBC binding ligand.
FIG. 2 is a schematic including the molecular finger print found in 70 kD band specific to 2,3,4-THDC that is DDX5 (SEQ ID NO: 1). The 35 kD, 70 kD and 90 kD bands specific to 2,3,4-THBC were subjected to Mass-Spec analysis service. […] Result data sheet that identified DDX5 in 70 kD band is shown.
In order to confirm if LL-37 induction in epithelial cells by EGCG is dependent on the activation of cell ligand (either cytoplasm or cell surface), or previously known anti-oxidant effects by EGCG, 3,4,5-tri-hydroxy benzoic acid-coupled beads and control 2,6-di-hydroxy benzoic acid-coupled beads are utilized to pull down the possible ligand for 3,4,5-tri-hydroxy benzoic acid. After incubation of each bead with cell lysate of OBA9, the beads are washed, and the cellular materials that bind to the beads are separated in SDS-PAGE. At least 3 bands (MW 35 kD, 70 kD and 90 kD), which are distinct to 3,4,5-tri-hydroxy benzoic acid, are detected, as compared to the other beads (control, 2,6-di-hydroxy benzoic acid and control plain beads). […]

LL-37 from OBA9 cells = assay: In vitro induction of LL-37 protein (ELISA) from OBA9 cells; format: cell-based, human; settings: 20 ug/ml
Experimental: (§1) Using ELISA systems to detect LL-37 (Forsyth in-house) and hBD2 (Peprotech), 33 natural compounds (20 ug/ml) are examined for their ability to induce LL-37 and hBD2 from OBA9 cells. Although the sensitivity of the hBD2 ELISA is higher than that of LL-37 ELISA (10 pg/ml vs 1 ng/ml, respectively), the induction of LL-37 is more prominent than hBD2 (FIG. 2 A&B, LL-37; C&D, hBD2). […] Bactericidal effects of LL-37 and hBD2 are, in general, potent.
The trihydroxybenzoate derivatives of the Invention and rosemarinic acid, courmarin, catechin gallate, epicatechin gallate, epigallocatechin, and tannic acid are tested to induce LL-37 from OBA9 cells in the absence of EGCG.

[3] = system: Actinobacillus actinomycetemcomitans Y4 (Aa Y4); assay: Bactericidal effect of culture supernatant of treated OBA9 cells; format: cell-based; settings: 20 ug/ml; compared with non-treated, catechin- or 2,4-dihydroxy benzoic acid-treated OBA9 supernatant
Experimental: The culture supernatant isolate from OBA9 is treated with 1) EGCG, 2) catechin, 3) 2,4-dihydroxy benzoic acid, and 4) 3,4,5-tri-hydroxy benzoic acid (20 ug/ml, respectively) and examined for their bactericidal effects on Actinobacillus actinomycetemcomitans Y4 (Aa Y4).

[4] = system: LL-37 protein in cheek epithelial cells; assay: LL-37 protein expression by cheek epithelium (Western blot); format: in vivo, human; settings: isolated cheek cells, anti-LL-37 monoclonal antibody
Description: (§2) Cheek epithelium is utilized for monitoring LL-37 mRNA and protein expression to determine if Trihydroxybenzoate Derivatives of the Invention can induce LL-37 in vivo. […] The isolated cheek cells are also subjected to Western blot analysis for protein expression of LL-37 by cheek epithelium using anti-LL-37 monoclonal antibody. The expression of both the proform (18 kD, also termed as hCAP18) and secreted form (4.5 kD) of LL-37 (12) in cheek epithelial cells is induced by Trihydroxybenzoate Derivatives of the Invention (e.g., EGCG (95% SIGMA), or by EGCG (90% Teavigo)).

LL-37 in OBA9 cells = assay: EGCG-induced LL-37 (ELISA) in OBA9 cells over expressing DDX5; format: cell-based, human; settings: EGCG 40 ng/ml, 2 hours
Experimental: The OBA9 cells transfected with either DDX5 over-expression vector (pK0203) or control empty vector (pKO108) were cultured for 48 h. Thereafter, the OBA9 cells were incubated with or without EGCG (40 ng/ml) for 2 hours, and the culture supernatant was subjected to ELISA for the detection of LL-37.

[5] = system: LL-37 mRNA in cheek epithelial cells; assay: In vivo LL-37 mRNA expression by human cheek epithelial cells after mouthwash (RT-PCR); settings: mouthwash with EGCG (40 ug/ml), after only 5 minutes from application
Description: as §2

LL37 mRNA in OBA9 cells = assay: EGCG-induced LL37 mRNA expression in OBA9 cells with or without DDX5 RNAi (RT-PCR); format: cell-based, human; settings: EGCG 40 ng/ml, 30 minutes
Experimental: (§3) Our hypothesis that THBC induction of LL-37 expression is mediated via binding to DDX5 is further supported by the finding that inhibition of DDX5 expression in gingival epithelial cells (OBA9) reduces EGCG-mediated LL-37 expression. Confluent OBA9 cells in a tissue culture plate are treated with or without DDX5-specific siRNA sequences (three different siRNA sequences specific to DDX5 are examined). After 24 h and 48 h incubation, total RNA and proteins are extracted, respectively, from the OBA9 cells. […] The OBA9 cells pre-incubated with non-target siRNA and DDX5-siRNA for 48 hours are restimulated with EGCG (40 ng/ml) for 30 min, and mRNA expression for LL-37 and […] was detected by RT-PCR. […] Effects of DDX5-siRNA treatment on EGCG-mediated LL-37 protein expression by OBA9 cells is measured by ELISA.
After treatment of OBA9 cells with control non-target siRNA or DDX5-siRNA (#A) for 48 hours, the OBA9 cells were incubated with or without EGCG (40 ng/ml) for 30 minutes. The total RNA isolated from the OBA9 cells was subjected to RT-PCR for LL37 mRNA as well as internal control β-actin mRNA.

[6] = system: LL-37 mRNA expression in OBA9 cells; assay: LL-37 mRNA expression in human gingival epithelial cells; format: cell-based; settings: 4-hour exposure, 0.1, 1.0 and 10 ug/ml
Experimental: (§4) Both LL-37 and hBD2 mRNA expression in OBA9 cells are induced after a 4-hour exposure to green tea polyphenol extract, Teaflan 90S (EGCG 50%, ECG 13%), and purified EGCG (95% pure, SIGMA) at concentrations of 0.1, 1.0 and 10 ug/ml. EGCG increases the production of LL-37 and hBD2 at the mRNA level in the human gingival epithelial cell line OBA9 (FIG. 1) as well as the human lung carcinoma cell line A549.

[7] = system: LL37 protein in OBA9 cells; assay: EGCG-induced LL37 protein expression in OBA9 cells with or without DDX5 RNAi (ELISA); format: cell-based, human; settings: OBA9 culture supernatant, EGCG 40 ng/ml, 30 min to 24 hours
Experimental: as §3
The OBA9 cells which were pre-treated with control non-target siRNA or DDX5-siRNA (#A) for 48 hours, as shown in 1-B, were incubated with EGCG (40 ng/ml) for different periods from 30 min to 24 hours. The supernatant harvested from the OBA9 cell culture was subjected to ELISA for LL37 protein.

LL-37 mRNA in A549 = assay: LL-37 mRNA level in lung carcinoma cell line; format: cell-based; settings: human lung carcinoma cell line A549
Experimental: as §4

[8] = system: hBD2 mRNA expression in OBA9 cells; assay: hBD2 mRNA expression in human gingival epithelial cells; format: cell-based; settings: 4-hour exposure, 0.1, 1.0 and 10 ug/ml
Experimental: as §4

hBD2 mRNA in A549 = assay: hBD2 mRNA level in lung carcinoma cell line; format: cell-based; settings: human lung carcinoma cell line A549
Experimental: as §4

hBD2 from OBA9 cells = assay: In vitro induction of hBD2 protein (ELISA) from OBA9 cells; format: cell-based, human; settings: 20 ug/ml
Experimental: as §1

With `O=C(O)c1ccc(O)c(O)c1O` [2,3,4-tri-hydroxy benzoic acids, 2,3,4-trihydroxybenzoic acid] the “induction of LL-37 expression by OBA9 cells” value (“induction of LL-37 expression” for short) [1] was “show the induction of LL-37 expression” and the “binding to DDX5 (pull down, 70 kD band)” value [2] was “only found in 2,3,4-THDC beads”.
In the case of `O=C(O)c1c(O)cc(O)cc1O` [2,4,6-tri-hydroxy benzoic acids, reference compound], the “induction of LL-37 expression” value [1] was “not”.
With `O=C(O)c1c(O)cccc1O` [2,6-di-hydroxy benzoic acids, 2,6-dihydroxy benzoic acid, reference compound] the “induction of LL-37 expression” value [1] was “not”.
`O=C(O)c1cc(O)c(O)c(O)c1` [3,4,5-tri-hydroxy benzoic acid, 3,4,5-trihydroxybenzoic acid] was tested, and the “induction of LL-37 expression” value [1] was “show the induction of LL-37 expression”, the “induction of LL-37 (ELISA)” value (LL-37 from OBA9 cells) was “more potent than 3,4,-dihydroxy benzoate” and the “bactericidal effects of culture supernatant of treated OBA9 cells on Aa Y4” value [3] was “more bactericidal effects”. For the same compound, the “binding to DDX5 (pull down, 70 kD band)” value [2] was “binds to DDX5 expressed in gingival epithelial cells with high affinity”.
In the case of `O=C(O[C@@H]1Cc2c(O)cc(O)cc2O[C@@H]1c1cc(O)c(O)c(O)c1)c1cc(O)c(O)c(O)c1` [EGCG (90% Teavigo)], the “expression of proform (18 kD) and secreted form (4.5 kD) of LL-37 in cheek epithelial cells (Western blot)” value [4] was “induced”.
In the case of `O=C(O[C@@H]1Cc2c(O)cc(O)cc2O[C@@H]1c1cc(O)c(O)c(O)c1)c1cc(O)c(O)c(O)c1` [EGCG, epigallocatechin gallate], the “LL-37 expression induced by EGCG (ELISA)” value (LL-37 in OBA9 cells; OBA9 with no vector, empty vector pK0108 or pK0203) was “induced the LL-37 expression in all three conditions”, the “LL-37 expression induced by EGCG in OBA9 transfected with DDX5 over-expression vector versus no vector or empty vector” value (LL-37 in OBA9 cells; P<0.05, Student t test) was “significantly higher” and the “LL-37 mRNA expression by cheek epithelial cells (RT-PCR)” value [5] was “up-regulated”. The “LL37 mRNA expression induced by EGCG” value (LL37 mRNA in OBA9 cells) was “induced”, the “bactericidal effects of culture supernatant of treated OBA9 cells on Aa Y4” value [3] was “more bactericidal effects” and the “expression of proform (18 kD) and secreted form (4.5 kD) of LL-37 in cheek epithelial cells (Western blot)” value [4] was “induced”. The “LL-37 mRNA expression” value [6] was “induced”, the “LL37 protein expression after EGCG stimulation (ELISA)” value [7] was “detected as early as 30 min until 24 hours; also recorded: increased in a time dependent manner” and the “production of LL-37 at the mRNA level” value (LL-37 mRNA in A549) was “increases”. For the same compound, the “hBD2 mRNA expression” value [8] was “induced”, the “binding to DDX5 (pull down, 70 kD band)” value [2] was “binds to DDX5” and the “production of hBD2 at the mRNA level” value (hBD2 mRNA in A549) was “increases”.
With `CCCCCCCCCCCCCC(=O)O[C@@H]1[C@@H](C)[C@@]2(O)[C@@H](C=C(CO)C[C@]3(O)C(=O)C(C)=C[C@@H]23)[C@@H]2C(C)(C)[C@]12OC(C)=O` [PMA] the “induction of LL-37 (ELISA)” value (LL-37 from OBA9 cells) was “induced LL-37” and the “induction of hBD2 (ELISA)” value (hBD2 from OBA9 cells) was “minimal induction activities”.
For `O=C(/C=C/c1ccc(O)c(O)c1)O[C@H](Cc1ccc(O)c(O)c1)C(=O)O` [Rosemarinic acid], the “induction of LL-37 (ELISA)” value (LL-37 from OBA9 cells) was “little or no induction”.
In the case of `O=c1ccc2ccccc2o1` [courmarin], the “induction of LL-37 (ELISA)” value (LL-37 from OBA9 cells) was “little or no induction”.
With Poly IC the “induction of LL-37 (ELISA)” value (LL-37 from OBA9 cells) was “induced LL-37” and the “induction of hBD2 (ELISA)” value (hBD2 from OBA9 cells) was “minimal induction activities”.
